Entries after “also recorded” stand apart in the source; their conditions may differ.
How the values were obtained:
[1] = test system: kidneys from ACI rats transplanted into Lewis rats; format: in vivo
Method: (§1) In vivo studies were conducted using piceatannol obtained from Peninsula Lab. […] We examined the ability of piceatannol/calcineurin mixtures to prolong graft survival. Donor organs from ACI rats were transplanted into Lewis rats.
In other experiments, kidneys from ACI rats were transplanted into Lewis rats. Drug administration continued for an additional seven days after transplant at the same levels. From day 8 through day 60 post-transplant administration continued, albeit with piceatannol reduced to 10 mg/kg/day. Thereafter, drug administration ceased.
Animals were anesthetized. The lower abdomen of the donor was shaved and surgically prepared and a long midline incision was made in the abdominal wall. The left kidney and left ureter, aorta, and vena cava were dissected, and suprarenal and gonadal veins ligated and cut. After ligating the suprarenal aorta and vena cava, a hole made in distal aorta and left kidney was flushed in situ with 3 ml of heparinized cold Euro-Collins' solution. The left kidney and left ureter were removed with an aortic cuff and vena cava patched and kept on ice.
After the lower abdomen of the recipient was shaved and surgically prepared, the recipient animal underwent a left nephrectomy via a long midline incision under inhalation anesthesia, and abdominal aoerta and vena cava were prepared for anastomosis. […]

[2] = test system: hearts from ACI rats transplanted into Lewis rats; assay: Heterotopic heart transplant, graft survival; format: in vivo, rat; settings: at the specified dosages (30 mg/kg piceatannol, 2 mg/kg cyclosporin A)
Method: as §1
Prior to transplantation, piceatannol (30 mg/kg) was administered intravenously for three days into one selection of Lewis rats via a catheter placed in the right jugular vein.
At day 3, hearts from ACI rats were heterotopically transplanted into the abdomen of the Lewis rats. […] Following transplantation, fascia and muscle were closed with absorbable suture and skin was closed with nylon.
After surgery animals were placed on a warm pad and observed until they awakened. The animals were then placed in cages in a warm environment with wood chip bedding, and provided rodent chow. To relieve pain, Buprenorphine was also given to the animal. Toxicity in animals was monitored by measuring the blood levels of creatinine and ALT, indicators of kidney and liver function, respectively. Drug administration then continued for an additional seven days after the transplant surgery (and was then discontinued).
In the case of heart transplants, rejection was considered complete when no heart beat was palpable with respect to the transplanted organ. This was confirmed by laparotomy and direct inspection.

[3] = test system: Syk kinase; settings: J. Oliver et al., J. Biol. Chem. 1994; mast cell/allergy studies; cited from earlier work
[4] = test system: transplanted organ; assay: In vivo use of piceatannol alone as an immunosuppressive
[5] = test system: T and B cell activation; assay: T and B cell activation; format: cell-based; settings: both in vitro and in vivo

With `Oc1cc(O)cc(/C=C/c2ccc(O)c(O)c2)c1` [piceatannol, 3,4,3′,5′-tetrahydroxy-trans-stilbene] the “prolonging kidney allograft survival (in words)” value ([1]; piceatannol 30 then 10 mg/kg/day IV, CsA 2 mg/kg/day IM, day -3 to +60, rejection = serum creatinine over 2 mg/dl or death) was “not effective”, the “histological analysis of transplanted kidneys” value ([1]; single-agent groups, data not shown) was “signs of acute rejection” and the “prolongation of heart graft survival (in words)” value [2] was “only minimal prolongation effect”. The “inhibition of Syk kinase” value [3] was “very effective inhibitor”, the “tolerability / toxicity of piceatannol alone” value ([4]; 75 mg/kg of body weight per day) was “not well tolerated; also recorded: some toxicity was noted” and the “transplanted organ survival, piceatannol alone” value ([4]; in vivo use of piceatannol) was “prolongs transplanted organ survival”. The “T and B cell activation” value [5] was “inhibits”.

Reference: patent US20040033941A1, “Immunosuppression using piceatannol and a calcineurin inhibitor” (priority 2003, published 2004)
